Our source for the MEC values is patent US9624214B2, “Amino-substituted imidazo[1,2-a]pyridinecarboxamides and their use” (BAYER PHARMA AKTIENGESELLSCHAFT, priority 2012, dated 2017).

Where a name gives a salt, the structure may show the parent alone.

The target of this test is T1, recombinant guanylate cyclase reporter cell line (Rattus norvegicus, UniProt P19686+P20595).
T1 construct: expressed in transfected cells
T1 sequence (P20595 1-619): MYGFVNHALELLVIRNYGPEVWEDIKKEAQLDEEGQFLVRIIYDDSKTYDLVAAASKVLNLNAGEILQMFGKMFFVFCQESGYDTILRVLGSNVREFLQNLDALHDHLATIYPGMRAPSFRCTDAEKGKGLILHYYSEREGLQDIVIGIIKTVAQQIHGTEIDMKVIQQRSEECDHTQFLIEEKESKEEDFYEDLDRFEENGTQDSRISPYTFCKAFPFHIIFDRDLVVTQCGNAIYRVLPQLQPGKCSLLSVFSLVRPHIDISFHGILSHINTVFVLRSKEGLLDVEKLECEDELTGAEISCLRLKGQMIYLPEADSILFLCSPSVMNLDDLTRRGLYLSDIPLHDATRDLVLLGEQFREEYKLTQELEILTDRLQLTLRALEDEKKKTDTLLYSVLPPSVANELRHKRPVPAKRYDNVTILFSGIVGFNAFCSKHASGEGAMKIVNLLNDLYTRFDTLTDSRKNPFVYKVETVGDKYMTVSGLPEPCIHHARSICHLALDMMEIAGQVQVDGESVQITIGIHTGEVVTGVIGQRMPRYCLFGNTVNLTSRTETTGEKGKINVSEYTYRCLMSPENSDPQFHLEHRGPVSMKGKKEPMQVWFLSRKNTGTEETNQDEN
T1 sequence (P19686 1-690): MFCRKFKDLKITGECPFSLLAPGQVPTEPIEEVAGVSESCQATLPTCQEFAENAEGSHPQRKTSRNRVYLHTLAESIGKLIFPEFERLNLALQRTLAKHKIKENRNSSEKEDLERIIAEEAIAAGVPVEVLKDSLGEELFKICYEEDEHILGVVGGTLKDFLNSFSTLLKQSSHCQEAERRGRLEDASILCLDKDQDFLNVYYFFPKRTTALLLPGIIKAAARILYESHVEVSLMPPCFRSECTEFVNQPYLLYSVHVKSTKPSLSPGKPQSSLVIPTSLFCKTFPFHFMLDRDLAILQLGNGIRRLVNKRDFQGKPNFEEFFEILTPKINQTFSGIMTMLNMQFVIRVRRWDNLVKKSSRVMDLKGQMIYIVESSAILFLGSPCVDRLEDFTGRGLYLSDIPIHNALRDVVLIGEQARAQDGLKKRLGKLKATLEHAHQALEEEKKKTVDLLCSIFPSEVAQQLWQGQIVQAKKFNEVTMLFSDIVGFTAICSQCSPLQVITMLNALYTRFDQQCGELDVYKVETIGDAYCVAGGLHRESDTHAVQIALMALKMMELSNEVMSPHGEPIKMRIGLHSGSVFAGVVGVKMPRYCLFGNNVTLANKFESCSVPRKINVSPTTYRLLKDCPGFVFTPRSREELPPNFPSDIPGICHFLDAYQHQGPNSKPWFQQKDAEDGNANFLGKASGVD
Nature of the test: B-2. Action on recombinant guanylate cyclase reporter cell line. Type of test: cell-based. Conditions: MEC = minimal effective concentration; in some cases mean values from individual determinations. The method, boiled down:
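Rat recombinant guanylate cyclase reporter cell line measures cellular activity. Value reported as MEC (minimal effective concentration), sometimes averaged over individual determinations.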
With `CCCC(C)(N)CNC(=O)c1c(C)nc2c(OCc3c(F)cccc3OC)cc(C)cn12` (racemic) [Example 351, rac-N-(2-amino-2-methylpentyl)-8-[(2-fluoro-6-methoxybenzyl)oxy]-2,6-dimethylimidazo[1,2-a]pyridine-3-carboxamide], the MEC was found to be 3.00 µM.

On to `Cc1nc2c(OCc3c(F)cccc3F)cccn2c1C(=O)NCCN1CCN(C2CC2)CC1` [Example 168, N-[2-(4-Cyclopropylpiperazin-1-yl)ethyl]-8-[(2,6-difluorobenzyl)oxy]-2-methylimidazo[1,2-a]-pyridine-3-carboxamide], for which the MEC was 1.00 µM.

As to `Cc1cc(OCc2c(F)cccc2F)c2nc(C)c(C(=O)NCCN3CCC(F)(F)CC3)n2c1` [Example 163, 8-[(2,6-difluorobenzyl)oxy]-N-[2-(4,4-difluoro-piperidin-1-yl)ethyl]-2,6-dimethylimidazo[1,2-a]pyridine-3-carboxamide], the MEC stood at 0.30 µM.

In the case of `CCCC(C)(N)CNC(=O)c1cnc2c(OCc3c(F)cccc3F)cccn12` (stereo not drawn) [Example 354, ent-N-(2-amino-2-methylpentyl)-8-[(2,6-difluorobenzyl)oxy]imidazo[1,2-a]pyridine-3-carboxamide], the MEC is 3.00 µM.

Regarding `Cc1nc2c(OCc3c(F)cccc3F)cc(Cl)cn2c1C(=O)NCCC(C)(C)N` [Example 104, N-(3-Amino-3-methylbutyl)-6-chloro-8-[(2,6-difluorobenzyl)oxy]-2-methylimidazo[1,2-a]-pyridine-3-carboxamide], the MEC is 0.30 µM.

As for `Cc1cc(OCc2c(F)cccc2F)c2nc(C)c(C(=O)NC[C@H]3CCCCN3)n2c1` [Example 173, 8-[(2,6-Difluorobenzyl)oxy]-2,6-dimethyl-N-[(2R)-piperidin-2-ylmethyl]imidazo[1,2-a]pyridine-3-carboxamide], the MEC came out at 0.30 µM.

In the case of `Cc1nc2c(OCc3c(F)cccc3F)cccn2c1C(=O)NCCN1CCC(F)(F)C1` [Example 143, 8-[(2,6-difluorobenzyl)oxy]-N-[2-(3,3-difluoropyrrolidin-l-yl)ethyl]-2-methylimidazo[1,2-a]pyridine-3-carboxamide], the MEC was found to be 0.30 µM.

Regarding `Cc1nc2c(OCc3c(F)cccc3F)cccn2c1C(=O)NCC1(N)CC1` [Example 38, N-[(1-aminocyclopropyl)methyl]-8-[(2,6-difluorobenzyl)oxy]-2-methylimidazo[1,2-a]-pyridine-3-carboxamide], the MEC was 0.40 µM.

Turning to `Cc1cc(OCc2c(F)cccc2F)c2nc(C)c(C(=O)NC(CN)c3ccc(C#N)cc3)n2c1` (racemic) [Example 398, rac-N-[2-amino-1-(4-cyanophenyl)ethyl]-8-[(2,6-difluorobenzyl)oxy]-2,6-dimethylimidazo[1,2-a]pyridine-3-carboxamide], the MEC was 0.30 µM.

As to `Cc1cc(OCc2c(F)ccc(F)c2F)c2nc(C)c(C(=O)NCC(C)(N)CCC(F)(F)F)n2c1` (single isomer, unassigned; enantiomer b) [Example 411, ent-N-(2-amino-5,5,5-trifluoro-2-methylpentyl)-2,6-dimethyl-8-[(2,3,6-trifluorobenzyl)oxy]imidazo[1,2-a]pyridine-3-carboxamide (Enantiomer B)], the MEC was 0.03 µM.

Regarding `Cc1nc2c(OCc3c(F)cccc3F)cc(Cl)cn2c1C(=O)NCCN1CCC(F)(F)CC1` [Example 151, 6-chloro-8-[(2,6-difluorobenzyl)oxy]-N-[2-(4,4-difluoropiperidin-1-yl)ethyl]-2-methylimidazo[1,2-a]pyridine-3-carboxamide], the MEC worked out at 0.10 µM.

Take `Cc1nc2c(OCc3c(F)cccc3F)cccn2c1C(=O)NCC(N)C(F)(F)F` (single isomer, unassigned) [Example 209, ent-N-(2-Amino-3,3,3-trifluoropropyl)-8-[(2,6-difluorobenzyl)oxy]-2-methylimidazo[1,2-a]-pyridine-3-carboxamide]: the MEC turned out to be 0.30 µM.

For `Cc1nc2c(OCc3c(F)cccc3F)cc(Cl)cn2c1C(=O)NC(C)C1CCN(C)CC1` (racemic) [Example 78, rac-6-chloro-8-[(2,6-difluorobenzyl)oxy]-2-methyl-N-[1-(1-methylpiperidin-4-yl)ethyl]-imidazo[1,2-a]pyridine-3-carboxamide], the MEC was determined as 1.00 µM.

Take `COCC(C)(N)CNC(=O)c1c(C)nc2c(OCc3c(F)cccc3F)cc(C)cn12` (racemic) [Example 166, rac-N-(2-amino-3-methoxy-2-methylpropyl)-8-[(2,6-difluorobenzyl)oxy]-2,6-dimethylimidazo[1,2-a]pyridine-3-carboxamide]: the MEC was 0.30 µM.

As for `Cc1nc2c(OCc3c(F)cccc3F)cccn2c1C(=O)NCCN(C(C)C)C(C)C` [Example 88, 8-[(2,6-difluorobenzyl)oxy]-N-[2-(diisopropyl-amino)ethyl]-2-methylimidazo[1,2-a]pyridine-3-carboxamide], the MEC worked out at 1.00 µM.

On to `Cc1nc2c(OCc3c(F)cccc3F)cc(Cl)cn2c1C(=O)NCCN1CC(N2CCCC2)C1` [Example 156, 6-chloro-8-[(2,6-difluorobenzyl)oxy]-2-methyl-N-{2-[3-(pyrrolidin-1-yl)azetidin-1-yl]ethyl}-imidazo[1,2-a]pyridine-3-carboxamide], for which the MEC worked out at 3.00 µM.

On to `CCCC(C)(N)CNC(=O)c1c(C)nc2c(OCc3c(F)cccc3F)cc(C)cn12` (single isomer, unassigned) [Example 233, ent-N-(2-Amino-2-methylpentyl)-8-[(2,6-difluorobenzyl)oxy]-2,6-dimethylimidazo[1,2-a]pyridine-3-carboxamide], for which the MEC was determined as 0.10 µM.

Regarding `Cc1cc(OCc2c(F)ccc(F)c2F)c2nc(C)c(C(=O)NCC(C)(N)CF)n2c1` (single isomer, unassigned; enantiomer a) [Example 285, ent-N-(2-amino-3-fluoro-2-methylpropyl)-2,6-dimethyl-8-[(2,3,6-trifluorobenzyl)oxy]imidazo[1,2-a]pyridine-3-carboxamide (Enantiomer A)], the MEC worked out at 0.3 µM.

In the case of `Cc1nc2c(OCc3c(F)cccc3F)cccn2c1C(=O)NC12CNCCC1C2` (racemic) [Example 125, rac-N-(3-Azabicyclo[4.1.0]hept-1-yl)-8-[(2,6-difluorobenzyl)oxy]-2-methylimidazo[1,2-a]-pyridine-3-carboxamide], the MEC was 1.00 µM.

Take `Cc1nc2c(OCc3c(F)cccc3F)cccn2c1C(=O)NCC(C(C)C)N(C)C` (racemic) [Example 142, rac-8-[(2,6-difluorobenzyl)oxy]-N-[2-(dimethyl-amino)-3-methylbutyl]-2-methylimidazo[1,2-a]-pyridine-3-carboxamide]: the MEC was 1.00 µM.

As to `CCCC(C)(N)CNC(=O)c1c(CC)nc2c(OCc3c(F)cccc3F)cc(C)cn12` (racemic) [Example 301, rac-N-(2-amino-2-methylpentyl)-8-[(2,6-difluorobenzyl)oxy]-2-ethyl-6-methylimidazo[1,2-a]pyridine-3-carboxamide], the MEC was determined as 0.10 µM.

For the compound `Cc1cc(OCc2c(F)cccc2F)c2nc(C)c(C(=O)NCC(C)(N)CF)n2c1` (racemic) [Example 282, rac-N-(2-amino-3-fluoro-2-methylpropyl)-8-[(2,6-difluorobenzyl)oxy]-2,6-dimethylimidazo[1,2-a]pyridine-3-carboxamide Formate], the MEC amounted to 0.3 µM.

For `Cc1nc2c(OCc3c(F)cccc3F)cccn2c1C(=O)NC(CN)c1ccc(Cl)cc1` (single isomer, unassigned; enantiomer b) [Example 15, ent-N-[2-Amino-1-(4-chlorophenyl)ethyl]-8-[(2,6-difluorobenzyl)oxy]-2-methylimidazo[1,2-a]-pyridine-3-carboxamide (Enantiomer B)], the MEC is 0.53 µM.

Take `Cc1cc(OCc2c(F)cccc2F)c2nc(C)c(C(=O)NC3CNCC3C(F)(F)F)n2c1` (mixture of isomers) [Example 313, 8-[(2,6-Difluorobenzyl)oxy]-2,6-dimethyl-N-[4-(trifluoromethyl)pyrrolidin-3-yl]imidazo[1,2-a]pyridine-3-carboxamide (Mixture of Stereoisomers)]: the MEC turned out to be 0.30 µM.
